The source of these data is patent US10287283B2, “Read-through compound prodrugs suppressing premature nonsense mutations” (The Regents of the University of California, priority 2014, dated 2019).

≈ marks a conversion by molar mass, not a printed value. Counter-ions that a name gives are not always drawn. Like-named read-outs stand apart in the source and are kept apart here.

Series [1] deals with normal termination codons. The conditions noted are these: cited from earlier work.
Series [2] is described as follows: Pharmacokinetics studies after oral administration of compound 8 (tissue levels). The class given is in vivo. The conditions noted are these: C57BL/10 mice; for level in heart: oral compound 8 at 10 mg/kg and 30 mg/kg; for level in biceps / level in gastrocnemius: oral compound 8 at 10 mg/kg. On the procedure:
FIG. 19 provides plots showing the results of pharmacokinetics studies in C57BL/10 mice after oral administration of compound 8 in gastrocnemius. The compound was administered at the indicated dosages in 6-8 weeks old C57BL/10 mice and tissues were analyzed in gastrocnemius 15 min, 30 min, 1 hr, 4 hrs, 6 hrs, and 24 hrs after gavage. Compound 8 and RTC13 (compound 5) were not detected in muscles isolated from mice that received compound 8 at a dose of 10 mg/kg. RTC13: compound 5; and 13Y: compound 8.
FIG. 20 provides plots showing the results of pharmacokinetics studies in C57BL/10 mice after oral administration of compound 8 in biceps. The compound was administered at the indicated dosages in 6-8 weeks old C57BL/10 mice and tissues were analyzed in biceps 15 min, 30 min, 1 hr, 4 hrs, 6 hrs and 24 hrs after gavage. Compound 8 and RTC13 (compound 5) were not detected in muscles isolated from mice that received compound 8 at a dose of 10 mg/kg. RTC13: compound 5; and 13Y: compound 8.
FIG. 21 provides plots showing the results of pharmacokinetics studies in C57BL/10 mice after oral administration of compound 8 in heart. The compound was administered at the indicated dosages in 6-8 weeks old C57BL/10 mice and tissues were analyzed in heart 15 min, 30 min, 1 hr, 4 hrs, 6 hrs, and 24 hrs after gavage. Compound 8 and RTC13 (compound 5) were not detected in muscles isolated from mice that received compound 8 at a dose of 10 mg/kg and 30 mg/kg. RTC13: compound 5; and 13Y: compound 8.

Another series has as its system mdx cells. The settings on record: cells in culture; cited from earlier work.
Series [3] relates to mdx mice. The conditions noted are these: cited from earlier work.
In series [4] the test system is mdx mice. Briefly: Dystrophin expression after intramuscular injection into TA muscles. Type of series: in vivo. The settings on record: for number of dystrophin positive fibers: TA muscle of mdx mice, intramuscular injection, compound 5 compared with prodrugs; for dystrophin staining in TA muscles: mdx mice, two weeks after intramuscular injection, compared to DMSO alone. The text has this: FIG. 8 provides plots showing dystrophin expression after intramuscular injection. Panel (A) provides plots showing dystrophin staining in TA muscles of mdx mice injected with RTC13 or its derivatives and analyzed two weeks after delivery of compounds and compared to muscles treated with DMSO alone. Dystrophin expression was evident in muscles that received the compounds but not in sham-injected muscles. […] (N=4 muscles per compound; scale bar: 50 μ ? ) Panel (B) provides plots showing the number of dystrophin positive fibers determined across the length of the muscle. […] Shown here is the average number of dystrophin positive fibers per cross-sectional area containing the highest number of positives. (N=4 muscles per compound; *: p=0.0008; **: p≤0.04). RTC13: compound 5; […]: compound 16; […]: compound 20; […]: compound 12; and […]: compound 8.

Series [5] has as its system lymphoblastoid cell lines derived from A-T patients. The settings on record: each of the three types of nonsense mutations (TGA>TAA>TAG); cited from earlier work.
The next series can be described thus: Aqueous solubility. Type of series: physicochemical. On the procedure: The solubility of selected compounds was tested and compared to that of comparative compound 5. To 5 mg of each test compound, water was slowly added initially in 0.5 mL and then 0.1 mL increments with vortexing for approximately 1 minute in between each aliquot of water addition and visually inspected for homogeneity. […] Table 1 provides the aqueous solubility of various prodrugs.

Series [6] relates to mdx mice. Briefly: Forelimb grip test after oral administration. The class given is in vivo. The conditions noted are these: oral administration for up to one month. The text has this: (§1) FIG. 24 provides plots showing functional improvement in mdx mice after oral administration of compound 8 for up to one month. Panel (A) provides plots showing the forelimb grip test that was used to assess the effects of systemic administration of RTCs on muscle strength. […] (N=5 mice per treatment group; *p<0.05; **p<0.005). Panel (B) provides plots showing the results obtained using the wire test. […] (N=6 mice per treatment group; *p<0.05; **p=0.005). 13Y: compound 8.

Series [7] deals with mdx mice. Briefly: Wire test after oral administration. Type of series: in vivo. The conditions noted are these: oral administration for up to one month.
Description: as §1

For series [8], the system named is mdx mice. Briefly: Dystrophin expression in muscles after oral administration for one month. Type of series: in vivo. The conditions noted are these: three times per day for one month, 30 mg/kg or 60 mg/kg. On the procedure: FIG. 23 provides images of microscopic images obtained from muscles isolated from mdx mice after oral administration of compound 8. Compounds were administered in 6-8 weeks old mdx mice three times per day for one month at the indicated dosages. Dystrophin expression was evident in muscles that received the compounds but not in sham-injected muscles. […] 13Y: compound 8.

Another series can be described thus: Serum chemistry analyses. Type of series: in vivo. The conditions noted are these: mdx mice; for serum levels of albumin, ALP, total bilirubin, LDH, cholesterol, total protein, and glucose: 30 or 60 mg/kg three times per day up to one month. On the procedure: FIG. 26 provides the results of the serum chemistry analyses of mdx mice treated with vehicle, PTC 124 at a dose of 30 mg/kg, PTC 124 at a dose of 60 mg/kg, compound 8 at a dose of 30 mg/kg or compound 8 at a dose of 60 mg/kg three times per day at intervals of 4 hrs for up to one month. […] Values are expressed as mean plus or minus Standard Deviation (±SD). The symbol * indicates statistical significance compared to mdx treated with vehicle only. The symbol † indicates statistical significance compared to wild type (C57BL/10) untreated mice. (N=4 mice per treatment group; p≤0.05). 13Y: compound 8.

The test system of series [9] is mdx mice. Briefly: In vitro force measurement of diaphragm muscles (eccentric contractions). Type of series: in vivo. On the procedure:
FIG. 25 provides plots showing in vitro force measurement of diaphragm muscles of mdx mice treated with vehicle, compound 8 at a dose of 30 mg/kg or compound 8 at a dose of 60 mg/kg three times per day at intervals of 4 hrs for up to one month. Muscles isolated from untreated and treated mice muscles were subjected to a series of five eccentric contractions with a 5-min rest between contractions. Results were compared to those of wild type (C57BL/10) mice. Panel (A) provides plots showing the decrease in force (in percentage) obtaining following eccentric contractions over the course of the analyses. […] Plot (B) show the results of the decrement in force (in percentage) obtained in mice treated with compound 8. […] (N=4 mice per treatment group, *: p≤0.05; **: p≤0.03). 13Y: compound 8.

The conditions of series [10]: Duchenne boys; cited from earlier work.
For series [11] the following is noted: phase-I clinical study in cystic fibrosis; cited from earlier work.
Series [12] addresses FLuc (firefly luciferase) reporter (Photinus pyralis, UniProt P08659). The settings on record: cited from earlier work.
[13] abbreviates: thermodynamic from solid, water, ambient pH, room temperature, read-out: Solubility in (mg/mL) water at ambient pH, at room temperature.

Chain of FLuc (firefly luciferase) reporter (P08659 whole entry): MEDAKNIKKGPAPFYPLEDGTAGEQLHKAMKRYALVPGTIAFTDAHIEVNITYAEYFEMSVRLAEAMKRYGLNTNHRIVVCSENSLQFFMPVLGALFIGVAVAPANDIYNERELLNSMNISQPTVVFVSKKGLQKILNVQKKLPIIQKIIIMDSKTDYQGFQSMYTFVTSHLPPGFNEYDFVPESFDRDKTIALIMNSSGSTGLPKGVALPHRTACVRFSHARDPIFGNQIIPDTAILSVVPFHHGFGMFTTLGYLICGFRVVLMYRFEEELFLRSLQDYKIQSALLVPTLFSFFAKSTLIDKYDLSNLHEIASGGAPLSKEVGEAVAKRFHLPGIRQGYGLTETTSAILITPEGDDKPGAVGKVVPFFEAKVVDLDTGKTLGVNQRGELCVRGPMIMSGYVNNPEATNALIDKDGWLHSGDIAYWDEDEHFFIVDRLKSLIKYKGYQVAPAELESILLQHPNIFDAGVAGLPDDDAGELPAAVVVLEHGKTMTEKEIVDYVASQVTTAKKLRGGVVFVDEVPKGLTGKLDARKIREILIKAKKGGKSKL

For `N=C1NC(=O)/C(=C/c2ccc(-c3ccccc3[N+](=O)[O-])o2)S1` [Compound 5, (5Z)-2-imino-5-([5-(2-nitrophenyl)furan-2-yl]methylidene)-1,3-thiazolidin-4-one], in series [1], the “read-through of normal termination (stop) codons” value was “not read-through normal termination codons”. Further, in [2], the level in heart entry is on record as “not detected”, the level in biceps result is listed as “not detected” and the level in gastrocnemius result was “not detected”. Also, in the series on mdx cells, the “full-length dystrophin in mdx cells” value was “restored full-length dystrophin”. For the same compound, the “Dystrophin protein detection in muscle groups” value in the series on mdx mice [3] (including diaphragm and heart) was “detected in all muscle groups analyzed”. Also, the “creatine kinase (CK) levels” value in the series with mdx mice [3] (marker of muscle degeneration) is on record as “decrease”. In addition, the “Dystrophin compared to PTC 124” value in the series on mdx mice [3] (mdx mice) was “significantly higher”. Besides, in the series on mdx mice [3] (over mice that did not receive the RTCs), the muscle strength result is given as “significant increase in muscle strength”. In the series on mdx mice [3] (systemic administration, mdx mice), the “dystrophin expression in skeletal muscles” value was “restores functional levels of dystrophin expression”. In addition, the “number of dystrophin positive fibers” value with mdx mice [4] was “significantly higher number of positive fibers than muscles that received compounds 16 and 20”. In series [5], the “activity in A-T lymphoblastoid cell lines” value is given as “biological activity”. Also, the solubility result in “Aqueous solubility” is listed as “low solubility”. In “Aqueous solubility” (diluted to IL with water, vigorously stirred for up to 12 hr), the dissolution in water entry is “did not appear to dissolve fully”. The solubility in “Aqueous solubility” (setting [13]) is under 0.005 mg/mL.

Regarding `CN1CCN(CC(=O)/N=C2\NC(=O)/C(=C/c3ccc(-c4ccccc4[N+](=O)[O-])o3)S2)CC1` [Compound 8, 2-(4-methylpiperazin-1-yl)-7V-[(2£′,5Z)-5-{[5-(2-nitrophenyl)furan-2-yl]methylidene}-4-oxo-1,3-thiazolidin-2-ylidene]acetamide dihydrochloride], the “muscle strength, forelimb grip test” value in the series on mdx mice [6] is “significant force recovery”. The “average hanging time, wire test” value in the series on mdx mice [7] is “more significant than that of sham-injected mice or mice treated with PTC 124”. Moreover, in series [2], the level in heart result is given as “not detected”, the level in biceps result was “not detected” and the level in gastrocnemius entry is recorded as “not detected”. In addition, in the series on mdx mice [8], the “dystrophin expression in muscles” value was “higher levels of dystrophin expression than muscles obtained from mdx mice treated with PTC124”. In “Serum chemistry analyses”, the “serum levels of albumin, ALP, total bilirubin, LDH, cholesterol, total protein, and glucose” value was “within normal range”. In addition, in “Serum chemistry analyses” (compared to vehicle alone), the “alanine aminotransferase (ALT)” value is “decrease”, the “blood urea nitrogen (BUN)” value is on record as “decrease” and the creatinine result is listed as “decrease”. Also, the “decrease in force (in percentage) following eccentric contractions” value with mdx mice [9] (30 mg/kg and 60 mg/kg three times per day up to one month) was “improvement if loss of force was detected”. In the series with mdx mice [9] (60 mg/kg three times per day, compared to vehicle only), the “decrement in force (in percentage)” value is given as “significantly lower”. In addition, the “number of dystrophin positive fibers” value with mdx mice [4] is “No significant differences”. Moreover, the solubility in the series “Aqueous solubility” (setting [13]) turned out to be 3.3 mg/mL.

For the compound `CN(C)CC(=O)/N=C1\NC(=O)/C(=C/c2ccc(-c3ccccc3[N+](=O)[O-])o2)S1` [Compound 12, (£)-N^2,N^2-dimethyl-7V-[(5Z)-5-{[5-(2-nitrophenyl)furan-2-yl]methylidene}-4-oxo-1,3-thiazolidin-2-ylidene]glycinamide hydrochloride], the “number of dystrophin positive fibers” value with mdx mice [4] is given as “No significant differences”. Further, the solubility in “Aqueous solubility” (setting [13]) turned out to be 10 mg/mL.

For the compound `O=C1N/C(=N\C(=O)C2CCNCC2)S/C1=C\c1ccc(-c2ccccc2[N+](=O)[O-])o1` [Compound 16, N-[(2ii,5Z)-5-{[5-(2-nitrophenyl)furan-2-yl]methylidene}-4-oxo-1,3-thiazolidin-2-ylidene]piperidine-4-carboxamide hydrochloride], the “number of dystrophin positive fibers” value in the series on mdx mice [4] is “compound 5 showed a significantly higher number of positive fibers”. For the same compound, in “Aqueous solubility” (setting [13]), the solubility was found to be 0.18 mg/mL.

For the compound `O=C(CN1CCOCC1)/N=C1\NC(=O)/C(=C/c2ccc(-c3ccccc3[N+](=O)[O-])o2)S1` [Compound 20, 2-(morpholin-4-yl)-7V-[(2£′,5Z)-5-{[5-(2-nitrophenyl)furan-2-yl]methylidene}-4-oxo-1,3-thiazolidin-2-ylidene] acetamide], in the series on mdx mice [4], the “number of dystrophin positive fibers” value was “compound 5 showed a significantly higher number of positive fibers”. Further, the solubility in “Aqueous solubility” (setting [13]) was 0.1 mg/mL (≈ 226 µM).

Turning to `O=C(O)c1cccc(-c2noc(-c3ccccc3F)n2)c1` [PTC124], the “efficacy in clinical trials” value in series [10] is reported as “indeterminate efficacy”. Also, the “muscle strength, forelimb grip test” value in the series with mdx mice [6] was “No significant improvements”. Also, the “read-through of normal termination (stop) codons” value in series [1] is recorded as “does not induce ribosomal readthrough of normal stop codons”. For the same compound, in the series with mdx mice [7], the “average hanging time, wire test” value was “No significant improvements”. Also, in series [11], the “readthrough activity compared to aminoglycosides” value is given as “more efficient readthrough activity than aminoglycosides” and the tolerability entry was “generally well tolerated”. In series [12], the effect on reporter entry was “direct effect on the FLuc (firefly luciferase) reporter”. Also, the “serum levels of albumin, ALP, total bilirubin, LDH, cholesterol, total protein, and glucose” value in the series “Serum chemistry analyses” was “within normal range”.

As to `CC(C)(C)c1ccc(O)c(N=Cc2cccc([N+](=O)[O-])c2)c1` [RTC14], the “dystrophin staining in TA muscles” value in the series with mdx mice [4] is “Weak expression”.

For the compound gentamicin, in the series with mdx mice [4], the “dystrophin staining in TA muscles” value is reported as “Weak expression”.
